Experiments:
[1] = molecular target: CDK19/CycC (Homo sapiens, UniProt Q9BWU1); test: LanthaScreen europium kinase binding assay (FRET displacement), CDK19
Summary of the method: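 His-tagged CDK19/CycC (5 nM) preincubated 30 min with 10 nM Alexa Fluor 665 ATP-site tracer, 2 nM biotin anti-his antibody and 2 nM europium-streptavidin, then titrated with compound (10^−4.5 to 10^−8 M). TR-FRET (ex 317, em 620/665 nm) read after 3 h at room temperature; duplicates, three independent runs, DMSO-normalized IC50.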

[2] = molecular target: CDK8 (Homo sapiens, UniProt P49336); test: LanthaScreen europium kinase binding assay (FRET displacement), CDK8
Chain of CDK8 (P49336 whole entry): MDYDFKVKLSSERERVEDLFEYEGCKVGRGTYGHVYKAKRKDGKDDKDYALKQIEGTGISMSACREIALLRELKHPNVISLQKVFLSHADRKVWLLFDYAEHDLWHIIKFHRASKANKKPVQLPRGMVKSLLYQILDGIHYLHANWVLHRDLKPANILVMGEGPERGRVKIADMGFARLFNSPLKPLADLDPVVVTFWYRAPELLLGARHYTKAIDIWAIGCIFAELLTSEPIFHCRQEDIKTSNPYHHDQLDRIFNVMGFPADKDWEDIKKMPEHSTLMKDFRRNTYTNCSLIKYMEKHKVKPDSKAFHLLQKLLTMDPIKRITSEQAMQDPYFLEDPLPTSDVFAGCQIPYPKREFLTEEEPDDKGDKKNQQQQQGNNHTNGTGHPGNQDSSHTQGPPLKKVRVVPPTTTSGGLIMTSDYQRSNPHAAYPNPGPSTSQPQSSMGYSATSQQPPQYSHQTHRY
Chain of CDK8 (P24863 whole entry partner): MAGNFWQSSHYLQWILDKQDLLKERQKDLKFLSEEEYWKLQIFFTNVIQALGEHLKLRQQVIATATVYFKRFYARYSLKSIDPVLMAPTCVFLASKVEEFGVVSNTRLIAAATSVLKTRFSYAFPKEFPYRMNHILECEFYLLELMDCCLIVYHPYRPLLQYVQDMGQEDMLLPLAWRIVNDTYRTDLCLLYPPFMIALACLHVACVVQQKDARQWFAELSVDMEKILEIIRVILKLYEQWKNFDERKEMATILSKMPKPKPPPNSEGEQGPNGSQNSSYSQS

[3] = tested on: human foreskin fibroblast 2088 cells; test: Cell death assay in normal fibroblasts (LD50); format: cell-based; settings: FIG. 1B
Protocol: Triple-Negative Breast Cancer Cell Death Assay to Measure LD50: The efficacy and selectivity of the disclosed compounds was evaluated in a TNBC cell line assay (MDA-MB-231) and/or human foreskin fibroblast 2088 cells, as was protein binding to human serum and microsomal stability of the disclosed compounds, as described herein.
Cells from a TNBC cell line (MDA-MB-231) (approximately 100,000 cells) and/or human foreskin fibroblast 2088 cells were seeded into each well of a 6-welled polystyrene treated tissue culture plate and were allowed to attach for 18 h before treatment with the test compound. Cells were then treated every 24 h with a fresh batch of media containing the test compound at one of the respective concentration(s) (Log10 Molar [C]): −5.0, −5.5, −6.0, −6.5, −7.0, −7.5 so that a complete dose-response could be calculated.
After 48 h of treatment, adherent cells were fixed with a 4% paraformaldehyde solution and stained with Hoechst 33342 nuclear dye (5 μg/mL). Each well was imaged at 10× magnification on a Keyence BZ-X710 microscope and live cell counts were performed in triplicate for each condition using automated ImageJ computational software. LD50 values represent the percentage of live cells after treatment with the test compound, which was calculated after normalization to the DMSO only treated control group.

Chain of CDK19/CycC (Q9BWU1 whole entry): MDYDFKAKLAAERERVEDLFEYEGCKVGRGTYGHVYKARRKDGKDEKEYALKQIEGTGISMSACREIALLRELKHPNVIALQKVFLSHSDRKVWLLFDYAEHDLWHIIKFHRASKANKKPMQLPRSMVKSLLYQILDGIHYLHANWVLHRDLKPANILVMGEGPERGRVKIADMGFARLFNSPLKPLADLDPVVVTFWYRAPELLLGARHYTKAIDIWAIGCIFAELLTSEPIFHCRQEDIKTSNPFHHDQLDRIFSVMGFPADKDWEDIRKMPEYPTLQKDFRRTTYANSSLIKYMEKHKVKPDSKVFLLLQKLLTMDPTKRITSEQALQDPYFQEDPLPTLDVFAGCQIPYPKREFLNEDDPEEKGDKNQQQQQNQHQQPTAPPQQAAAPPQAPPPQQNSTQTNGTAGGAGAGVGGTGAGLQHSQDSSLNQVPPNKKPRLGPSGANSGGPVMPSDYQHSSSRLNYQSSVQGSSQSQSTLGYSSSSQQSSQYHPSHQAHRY
Chain of CDK19/CycC (P24863 whole entry partner): as the sequence (P24863 whole entry partner) above

Structure (SMILES): CNC(=O)c1cc(Nc2cnc(Nc3ccc(CC(C)C)cc3)nc2)ccn1 [Compound A47]
- CDK19 Selectivity ([1]; CDK19/CDK8 selectivity based on IC50 values): 2.4
- IC50 ([1]; his-tagged CDK19/CycC 5 nM, tracer 10 nM, 3 h incubation): 308 nM
- IC50 [2]: 737 nM
- concentration at which significant fibroblast cell death was observed [3]: 10,000 nM

— patent publication US20240351996A1, “CDK19-SELECTIVE INHIBITORS, AND METHODS OF USE THEREOF” (CZ BIOHUB SF, LLC, priority 2022, published 2024)
